Source: patent US7163960B2, “Treatment and prevention of inflammatory disorders” (Monsanto Technology L.L.C., priority 2002, dated 2007)
“Also recorded” adds a separate entry of the source. Marks after values point to notes of the source that are not given here.

Tests used:
[1] = Fatty acid analysis of blood cell phospholipids and plasma lipid fractions after ingestion of test fatty acids; type: in vivo, human
Source text: (§1) 45 males and post-menopausal female—19–65 years of age, normolipidemic, and with a body mass index (BMI) in the range 20 to 30, were recruited. Exclusion criteria included bleeding disorders, hypertension, inflammatory disorders, active gastrointestinal diseases, chronic use of low dose aspirin, consumption of restaurant or takeaway evening meals more than twice per week, use of dietary supplements rich in n-3 or n-6 fatty acids, habitual consumption of more than 1 fish meal per month, and plasma phospholipid EPA+DHA levels>7.9% of total fatty acids (level achieved in the study group was 4.9±1.0% of total fatty acids).
(§2) Following a 3-week run-in period, subjects ingested either ALA, SDA, EPA supplied as ethyl esters in capsules. Intakes were 0.75 g/day for 3 weeks followed by 1.5 g/day for the subsequent 3 weeks.
At each visit, 36 mL of blood was taken by venepuncture after an overnight fast. Blood was aliquoted into various tubes for the following procedures.
Blood (20 mL) was added to tubes containing 4 mL 4.5% EDTA in water and 4 mL—6% dextran in normal saline, pH 7.0. Erythrocytes were allowed to sediment under gravity at 37° C. for 30 min. The leucocyte-rich plasma was layered onto LYMPHOPREP, density 1.077 (Nycomed Pharma, Oslo) and centrifuged at 110 g for 10 min to separate leucocytes from the platelets, which were removed. The gradient was further centrifuged at 200 g for 20 min to separate the neutrophils from mononuclear cells, which were removed.
Samples were processed for fatty acid analysis as described in Mantzioris et al., Am. J. Clin. Nutr., 72:42–8 (2000). Plasma, washed platelet and mononuclear cell pellets were stored at −80° C. Erythrocyte pellets were treated fresh with chloroform:isopropanol (2:1) and the lipid extracts stored at 4° C. Plasma, platelet and mononuclear cell pellets were extracted with chloroform:methanol. The cellular and plasma lipid extracts were fractionated by thin-layer chromatography. For the cellular extracts, the phospholipid fraction was retained and for the plasma extracts, the phospholipid, cholesterol ester, and triglyceride fractions were retained. These were transesterified by methanolysis (1% H2SO4 in methanol at 70° C. for 3 h). Fatty acid methyl esters were separated and quantified with a HEWLETT-PACKARD 6890 gas chromatograph equipped with a 50 m capillary column coated with BPX-70 (0.25 μm film thickness; SGE Pty Ltd, Victoria, Australia) (see Mantzioris et al., supra). Fatty acid standards were obtained from NuChek Prep Inc. (Elysian, Minn.) and included stearidonic acid obtained from Sigma Aldrich Pty Ltd. (Castle Hill, NSW, Australia). All organic solvents contained butylated hydroxy anisole (0.005%) as an antioxidant.

leukotrienes = settings: U.S. Pat. No. 5,158,975; cited from earlier work
TNF-α = TNF-α synthesis in LPS-treated whole blood; type: in vivo, human; settings: for TNF-α synthesis in LPS-treated whole blood: mean ± SD
Protocol: as §2
(§3) Blood (4 mL) was added to heparinised tubes, bacterial lipopolysaccharide (LPS) was added (200 ng/mL), and the mixture was incubated at 37° C., 5% CO2, for 24 h. Plasma was collected and assayed for prostaglandin E2 (PGE2) by radioimmunoassay (RIA), interleukin-1β (IL-1β) and tumor necrosis factor-α (TNF-α) by ELISA, as described in Mantzioris et al., supra.

IL-1β = IL-1β synthesis in LPS-treated whole blood; type: in vivo, human; settings: for IL-1β synthesis in LPS-treated whole blood: mean ± SD
Protocol: as §2, §3

prostaglandin E2 (PGE2) = assay: PGE2 synthesis in LPS-stimulated whole blood; type: in vivo, human; settings: for PGE2 synthesis in LPS-stimulated whole blood: mean ± SD
Protocol: as §2, §3

C-reactive protein = assay: Clinical study of SDA on down-regulating C-reactive protein; type: in vivo, human; settings: Example 3, described in present tense; about 0.75 then 1.5 g/day
Source text: as §1, with “Approximately 35–50” for “45”, “female -19–65” for “female—19–65”, “are” for “were”, “include” for “included”, “acids. Subjects are randomly allocated to one” for “acids (level achieved in the study group was 4.9±1.0%”, “three groups, designated ALA, SDA, and EPA. […]” for “total fatty acids).”
C-reactive protein (Hs-CRP) in plasma can be analyzed by use of latex-enhanced immunonephelometric assay on a BN II analyzer (Rifai et al. Clinical efficacy of an automated high-sensitivity C-reactive protein assay. Clin. Chem […];45:2136). […]
Subjects are weighed at each visit for change in weight during the trial. […] Fatty acids are analyzed between dietary groups in EPA concentration in erythrocyte or plasma phospholipids. The effect of ingestion of EPA, ALA or SDA at 0.75 g/day (weeks 0 to 3) or 1.5 g/day (weeks 3 to 6) is determined with respect to EPA concentration in the phospholipid fractions of erythrocytes and plasma. Effects on DPA concentration in the phospholipid fractions of erythrocytes and plasma are also analyzed.

[2] = Week 3 (after 0.75 g/day for 3 weeks)
[3] = Week 6 (after 1.5 g/day for 3 weeks)
[4] = Week −3 (start of run-in, before dosing)

In the case of `CC/C=C\C/C=C\C/C=C\C/C=C\CCCCC(=O)O` [SDA, stearidonic acid], the “Effect on EPA concentration in the phospholipid fractions of erythrocytes and plasma” value ([1]; 0.75 g/day (weeks 0 to 3)) is reported as “significantly increased”, the “Effect on DPA concentration in the phospholipid fractions of erythrocytes and plasma” value ([1]; 1.5 g/day) is reported as “significantly increased; also recorded: elevated” and the “Effect on EPA concentration in the phospholipid fractions of erythrocytes and plasma” value ([1]; 1.5 g/day (weeks 3 to 6)) is reported as “significantly increased; also recorded: elevated”. The “Effect on tissue levels of DHA (FIG. 1)” value ([1]; erythrocytes and plasma phospholipids, 1.5 g/day) was “not DHA”, the “Efficiency relative to ALA at elevating tissue EPA levels” value ([1]; in humans) was “about four times more efficient than ALA” and the “Effect on biosynthesis of leukotrienes” value (leukotrienes) was “inhibit biosynthesis of leukotrienes”. For the same compound, the “Effect on LPS-stimulated TNF synthesis” value (TNF-α; 1.5 g/day) was “statistically significant decreases”, the “TNF-α synthesis in LPS-treated whole blood” value (from here on “TNF-α synthesis”) (TNF-α; Week 0 (baseline)) was 43.7 ± 18.7^a ng/mL and the “TNF-α synthesis” value (TNF-α; [2]) was 37.7 ± 14.2^ab ng/mL. For the same compound, the “TNF-α synthesis” value (TNF-α; [3]) was 34.1 ± 12.0^b ng/mL, the “TNF-α synthesis” value (TNF-α; [4]) was 37.6 ± 14.6^ab ng/mL and the “Effect on LPS-stimulated IL-1β synthesis” value (IL-1β; 0.75 g/day or 1.5 g/day (either dose)) was “significantly decreased”. The “IL-1β synthesis in LPS-treated whole blood” value (IL-1β; Week 0 (baseline)) was 94.7 ± 29.3^b ng/mL, the “IL-1β synthesis in LPS-treated whole blood” value (IL-1β; [2]) was 81.4 ± 21.9^c ng/mL and the “IL-1β synthesis in LPS-treated whole blood” value (IL-1β; [3]) was 77.8 ± 26.4^c ng/mL. For the same compound, the “IL-1β synthesis in LPS-treated whole blood” value (IL-1β; [4]) was 106.9 ± 33.0^a ng/mL, the “Effect on LPS-stimulated PGE2 synthesis” value (prostaglandin E2 (PGE2); 1.5 g/day) was “no change” and the “Effect on LPS-stimulated PGE2 synthesis” value (prostaglandin E2 (PGE2); Visit 3, following ingestion of 0.75 g) was “statistically significant increases”. The “PGE2 synthesis in LPS-stimulated whole blood” value (prostaglandin E2 (PGE2); Week 0 (baseline)) was “*4.64 ± 1.09^a ng/mL”, the “PGE2 synthesis in LPS-stimulated whole blood” value (prostaglandin E2 (PGE2); [2]) was 6.26 ± 2.56^b ng/mL and the “PGE2 synthesis in LPS-stimulated whole blood” value (prostaglandin E2 (PGE2); [3]) was 4.61 ± 0.95^a ng/mL. The “PGE2 synthesis in LPS-stimulated whole blood” value (prostaglandin E2 (PGE2); [4]) was 3.97 ± 1.48^a ng/mL and the “Effect of SDA intake on C-reactive protein” value (C-reactive protein) was “decrease in C-reactive protein”.
